Legend:
[1] = system: monocyte derived DC; test: Flow cytometric analysis of DC surface molecules; format: cell-based, human; details: for Surface expression of CD80, CD86, CD40, HLA-DR, CD83 on DC: immature DC of allergics, 48 h incubation
Experimental: (§1) Monocyte derived DC were generated as previously described (Weigt et al. Immunobiol. 207, 223-233 (2003). Briefly, blood was centrifuged to remove platelets, diluted and layered over Ficoll-Paque (Amersham Pharmacia, Uppsala, Sweden). After density gradient centrifugation, PBMC were collected, and monocytes were enriched using the MACS system and anti-CD14 beads (Miltenyi Biotec, Bergisch Gladbach, Germany). The CD14 positive fraction (monocytes) was cultured in the serum-free medium X-VIVO 15 supplemented with 100 U/ml penicillin and […] streptomycin (all BioWhittaker, Verviers, Belgium). The CD14 negative fraction containing the lymphocytes was cryopreserved in 90% FCS (GIBCO, Eggenstein-Leopoldhafen, Germany) and 10% DMSO (SIGMA, Taufkirchen, Germany). On day 1 and day 5 after isolation, 800 U/m of recombinant GM-CSF and 500 U/ml of recombinant IL-4 (Strathmann Biotec, Hamburg, Germany) were added to the monocyte culture to induce DC.
(§2) On day 5 of the culture, DC were pulsed with affinity purified house dust mite allergen adjusted to a concentration of 100 ng/ml of DerP1 or with PBS as control. […] The respective optimal concentrations were experimentally determined using the highest expression of stimulatory cell surface molecules as read-out system. The substances were incubated on the cells for 48 hours.
For immunophenotyping, an aliquot of DC was harvested after 7 days of culture and washed in PBS supplemented with 0.5% FCS and 10 mM NaN3 (SIGMA, Taufkirchen, Germany). After 30-minute-incubation at 4° C. with one of the following combination of labeled murine mAbs (isotype control FITC/isotype control PE, anti-CD83 FITC, anti-CD86 FITC/anti-CD40 PE, anti-CD 80 FITC/anti-HLA-DR PE, anti-CD1a FITC/anti-CD14 PE (all BD Biosciences, Heidelberg, Germany)) cells were washed and analysed on a EPICS XL-MCL (Beckmann Coulter, Krefeld, Germany) flow cytometer. Data were processed with the Expo 32 cytometer software (Beckmann Coulter). The expression of the cell surface molecules was shown in 1 parameter Histograms (FIG. 2) or evaluated using the median of fluorescence intensity (MFI) after subtraction of the values of the isotype control (Tab. 1).

[2] = system: monocyte derived DC; test: Cytokines in DC culture supernatant (ELISA); format: cell-based, human; details: day 7 of culture; for IL-10 production in DC culture supernatant / IL-12p70 production in DC culture supernatant: compared to untreated DC
Experimental: as §1, §2
(§3) Cytokine concentrations were determined in DC culture supernatant collected on day 7 (TNF-α, IL-10, IL-12) and in the supernatant of the coculture of DC and autologous lymphocytes collected on day 10 (IFN-γ, IL-4). Duo-Set ELISA kits for the detection of IL-12p70, IL-10, TNF, IFN-γ, IL-4 and IL-5 were purchased (R&D Systems, Wiesbaden, Germany) and performed according to the manufacturers instructions.

[3] = system: autologous lymphocytes; test: Cytokines in coculture of pretreated DC with autologous lymphocytes (ELISA); format: cell-based, human; details: for IFN-g in coculture supernatant / IL-4 in coculture supernatant: DC:lymphocytes 1:3; for IFN-g concentration in coculture supernatant / IL-4 concentration in coculture supernatant: DerP1 pulsed DC, day 3 of coculture
Experimental: as §2, §3
(§4) A portion of DC was used for coculture experiments with autologous lymphocytes from day 7 to day 13. To remove free stimulants, DC were harvested and washed twice. The cells were titrated in fresh medium in fresh round-bottom microtiterplates. 1×10^5 vital cryopreserved autologous lymphocytes were added at ratios of DC to lymphocytes from 1:3 to 1:2187 in a final volume of 200 μl in serum-free XVIVO-15. No further stimulants were given.

[4] = system: autologous lymphocytes; test: Proliferation assay (3H-thymidine) in coculture of DC and autologous lymphocytes; format: cell-based, human; details: DC of allergics, allergen pulsed, 3H-thymidine day 12 for 18 hours
Experimental: as §4
The coculture was pulsed with 5 μCi/ml ^3H-thymidine (Amersham Buchler, Braunschweig, Germany) on day 12. After 18 hours, the cells were harvested on filtermats (Canberra-Packard, Dreieich, Germany). After drying, 20 μl of liquid scintillator (Can berra-Packard) were added and the plates were sealed. Counts per minute were determined on a Topcount Microplate Scintillation Counter (Can berra-Packard).

[5] = system: Balb/c mice; test: Cytokines in BALF of OVA-sensitized and challenged mice (ELISA); format: in vivo, mouse; details: i.t. treatment day 27 (20 ng MALP-2, 10^4 U IFN-γ); 24 h after last allergen challenge
Experimental: Female Balb/c mice (Charles River, Sulzfeld, Germany) were used at the age of 6-8 weeks In all experiments. They were fed with ovalbumin-free laboratory food and tap water ad libitum and held in a regular 12 h dark/light cycle at a temperature of 22° C. Before experimental start, mice were acclimated for a period of 7 days.
(§5) Animals were sensitized and challenged as previously described (Glaab, T., A. Daser, A. Braun, U. Neuhaus-Steinmetz, H. Fabel, Y. Alarie, and H. Renz. 2001. Am. J. Physiol Lung Cell Mol. Physiol 280:L565-L573). Briefly, 10 μg ovalbumin (OVA, grade VI, Sigma, Müchen, Germany) was adsorbed to 1 mg Imject Alum (Pierce, Rockford, USA) in a total volume of 200 μl 0.9% NaCl solution and intraperitonealy injected three times on days 0, 14 and 21. Negative controls were injected with the solution lacking ovalbumin. All groups were subjected to inhalative allergen challenge on days 28 and 29. OVA-aerosols (grade V, Sigma) with a mean mass diameter of 1.49 μm were generated from a solution of 1 mg/ml OVA in 0.9% NaCl using a modified Pad Master system (Pari Werke, Sternberg, Germany) for 20 min. A lung deposition of approximately 8 μg OVA per mice in each session was calculated by a respiratory minute volume of 35 ml/min an a deposition factor of 0.15 as brought forward by Raabe et al. (Raabe, O. G., J. E. Bennick, M. E. Light, C. H. Hobbs, R. L. Thomas, and M. I. Tillery. 1973. Toxicol. Appl. Pharmacol. 26:264-273). 3 gives the test groups.
(§6) The trachea was canulated under direct vision, and a total volume of 50 μl containing the substances was instillated using a syringe.
(§7) Mice were killed with an i.p. injected overdose of pentobarbital-Na (Menial, Halbergmoos, Germany) after the lung function. In a satellite group, mice were left untouched after the last allergen challenge and kept for another 7 days. Afterwards, they were dissected in the same way as the main groups as follows. Blood was obtained via punction of the vena cava. Red blood cells were lysed by incubation with 0.9% NH4Cl (Sigma) in H2O for 10 min, white blood cells were automatically counted using an AcT8 counter (Beckman Coulter, Krefeld, Germany) and cytospins were prepared for differential cell count. The trachea was canulated and broncho-alveolar lavage (BAL) was performed with 0.8 ml ice cold saline two times. BAL cells were separated by centrifugation, counted and cytospins were prepared as described above. The BAL fluid (BALF) was aliquoted, shock frozen in liquid nitrogen and stored at −80° C. until the determination of cytokines. After BAL, the lungs were filled with Tissue-Tek O.C.T. (Sakura Finetek, Zoeterwoude, Netherlands) diluted 1:2 in PBS and the trachea was ligated. Next, the right lungs were excised, subsequently shock frozen in liquid nitrogen and stored at −80° C. for histology.
Duo-Set ELISA kits for the detection of IL-4, IL-5, IL-13 and IL-12p70 in the BAL supernatant were used (R&D Systems, Wiesbaden, Germany) according to the manufacturer's instructions.

[6] = system: Balb/c mice; test: Differential cell count of BAL and blood, OVA-sensitized mice; format: in vivo, mouse; details: i.t. treatment day 27; 24 h after last allergen challenge
Experimental: as §5, §6, §7
Cytospins were stained applying the Pappenheim method according to standard protocols. […] 300 cells of each sample were determined, and absolute counts of macrophages, lymphocytes, eosinophilic and neutrophilic granulocytes were calculated.

[7] = system: Balb/c mice; test: Lung function measurement: airway hyperreactivity to methacholine, head-out body plethysmography; format: in vivo, mouse; details: OVA-sensitized mice, 72 h after i.t. treatment, 24 h after last allergen challenge; mean±SEM
Experimental: as §5, with “OVA-aerosols (grade V, Sigma) with a mean mass diameter of 1.49 μm were generated from a solution of 1 mg/ml OVA in 0.9% NaCl using a modified Pad Master system (Pari Werke, Sternberg, Germany) for 20 min.” left out, “3 gives the test groups.” left out
24 hours after the last allergen challenge, airway hyperreactivity to methacholine (Mch) was determined in non-anaesthesized spontaneously breathing animals using head-out body plethysmography, as described before (Glaab, T., A. Daser, A. Braun, U. Neuhaus-Steinmetz, H. Fabel, Y. Alarie, and H. Renz. 2001. Am. J. Physiol Lung Cell Mol. Physiol 280:L565-L573). […] Respiratory signals were analyzed using the Hem 3.4 system (Notocord systems S. A., Crossy-sur-Seine, F).

[8] = system: autologous lymphocytes; details: DC treated in vitro; Weigt et al. 2003; cited from earlier work
[9] = DC of allergics, 48 h treatment, DerP1 100 ng/ml, MALP-2 100 pg/ml, IFN-g 5000 U/ml, mean±SEM of 6 experiments
[10] = allergic donors, pretreated DC:lymphocytes 1:3, mean±SEM of 6 experiments

## IFN-γ: interferon gamma, IFNγ receptor agonist (Strathmann Biotec)
[1]
  Surface expression of CD80, CD86, CD40, HLA-DR, CD83 on DC: upregulated only HLA-DR
[2]
  TNF production in DC culture supernatant: comparable moderate release
  IL-10 production in DC culture supernatant: did not influence
  IL-12p70 production in DC culture supernatant: did not influence
[3]; allergic donors
  IFN-g in coculture supernatant: heightened lymphopcyte IFN-g production
  IL-4 in coculture supernatant: little effect on IL-4
[4]
  Lymphocyte proliferation: increased proliferation
[5]
  IL-4 in BALF: did not affect IL-4
  IL-5 and IL-13 in BALF: reduced the levels of IL-5 and IL-13
  IL-12p70 in BALF: failed to induce IL-12p70
[6]
  Eosinophils in BAL: raised the eosinophil counts even further
  Number of BAL lymphocytes: increased
[7]
  ED50: concentration of Mch needed to decrease the EF50 to 50% of baseline: 17.67±3.05 mg/ml Mch

## macrophage activating lipopeptide-2 [MALP-2, reference compound]
[1]
  Surface expression of CD80, CD86, CD40, HLA-DR, CD83 on DC: significantly upregulated CD 40, CD 80, CD 83 and CD86
[2]
  TNF production in DC culture supernatant: comparable moderate release
  IL-10 production in DC culture supernatant: induced IL-10
  IL-12p70 production in DC culture supernatant: no effect on IL-12
[3]; allergic donors
  IFN-g in coculture supernatant: lowered IFN-g less compared to allergen pulsed DC
  IL-4 in coculture supernatant: reduced IL-4 to control levels
[4]
  Lymphocyte proliferation: exceeded by MALP-2
[5]
  IL-4 in BALF: reduce all Th2-markers to the level of the unsensitized negative control
  IL-5 and IL-13 in BALF: reduce all Th2-markers to the level of the unsensitized negative control
  IL-12p70 in BALF: did not amplify IL-12p70
[6]
  Eosinophils in BAL: raised the eosinophil counts even further
  Number of BAL lymphocytes: increased
[7]
  ED50: concentration of Mch needed to decrease the EF50 to 50% of baseline: 20.13±1.36 mg/ml Mch
[8]
  Polarization of lymphocytes into T-helper (Th-1) cells: no significant polarization
  Proliferation of autologous lymphocytes: marked proliferation

B1: DerP1: affinity purified major allergen of the house-dust mite Dermatophagoides pteronyssinus (protein, UniProt P08176 99-320, looked up)
Peptidase 1: TNACSINGNAPAEIDLRQMRTVTPIRMQGGCGSCWAFSGVAATESAYLAYRNQSLDLAEQELVDCASQHGCHGDTIPRGIEYIQHNGVVQESYYRYVAREQSCRRPNAQRFGISNYCQIYPPNVNKIREALAQTHSAIAVIIGIKDLDAFRHYDGRTIIQRDNGYQPNYHAVNIVGYSNAQGVDYWIVRNSWDTNWGDNGYGYFAANIDLMMIEEYPYVVIL
[1]; [9]
  CD1a median fluorescence intensity: 265.2 +/− 106.8
  CD 14 median fluorescence intensity: 17.6 +/− 9.8
  CD 40 median fluorescence intensity: 733 +/− 160.5
  CD 80 median fluorescence intensity: 47.2 +/− 18.9
  CD 83 median fluorescence intensity: 47.3 +/− 9^
  CD 86 median fluorescence intensity: 159.8 +/− 29.3
  HLA-DR median fluorescence intensity: 426.9 +/− 131.9
[1]
  Surface expression of CD80, CD86, CD40, HLA-DR, CD83 on DC: no effect on the expression of the surface molecules
[2]
  TNF production in DC culture supernatant: low levels
  IL-10 production in DC culture supernatant: did not influence
  IL-12p70 production in DC culture supernatant: did not influence
[3]; allergic donors
  IFN-g in coculture supernatant: reduction of IFN-g
  IL-4 in coculture supernatant: increase in IL-4
[3]; [10]
  IFN-γ production in coculture: 3.6 +/− 2.1
  IL-4 production in coculture: 13.6 +/− 7.3
[3]; allergics, ±SEM
  IFN-g concentration in coculture supernatant: 3.6 pg/mL
  IL-4 concentration in coculture supernatant: 13.6 pg/m
[3]; healthy donors
  IL-4 concentration in coculture supernatant: below the detection limit
[3]; non-allergics (healthy donors), ±SEM
  IFN-g concentration in coculture supernatant: 8.7 pg/m
[4]
  Lymphocyte proliferation: only a very weak effect on lymphocyte proliferation
